Measurements reported in patent US10174015B2, “Substituted heterocyclic derivative, preparation method and use thereof” (Xiamen University, priority 2014, dated 2019).
Where two headings read alike, the source gives them in different places.

Tests used:
hERG potassium channel = hERG potassium channel (Homo sapiens (Human), UniProt Q12809); assay: hERG potassium channel automated patch clamp in CHO-hERG cells
Experimental: CHO-hERG cells (purchased from ATCC) were incubated in a culture flask. When the cell density reached 60˜80%, the culture medium (Glutamax DMEM/F12 medium (Gibco, Shanghai) containing 10% fetal bovine serum) was removed. The cells were washed with 7 mL PBS once, and then digested by adding 3 mL Detachin cell dissociation buffer. After complete digestion, the resultant mixture was neutralized by adding 7 mL culture medium, and centrifuged. The supernatant was removed with a pipette, 5 mL culture medium was added to re-suspend the cells to ensure a cell density of 2˜5×10^6/mL.
Intracellular fluid and extracellular fluid were prepared as described in the following table.
A certain amount of compound was dissolved in […] at the following concentrations, to prepare the stock solution of compound. 2 μL stock solution of compound was added to 998 μL extracellular fluid, and was subjected to 5-fold serial dilution in extracellular fluid containing 0.2% DMSO to get the final concentrates to be tested.
Single cell giga-seal and formation of whole-cell mode were automatically performed by Sophion Qpatch HT fully automated cell patch clamp systems. After obtaining the whole-cell recording mode, the cell was clamped at −80 mV. The cell first underwent pre-voltage of −50 mV for 50 msec, then underwent depolarization stimulation at 20 mV for 5 sec, and then underwent repolarization at −50 mV for 5 sec, and then the voltage return to −80 mv. The cell underwent the stimulation at the voltage every 15 sec, and the data were recorded for 2 min, then extracellular fluid was administered, and then the data were recorded for 2 min. Then, the administration process begun. The concentration of a test compound started from the lowest concentration, each test concentration was administered for 2 min. […] At least three cells were tested for each concentration (n≥3). The experimental data was analyzed by XLFit software.

[1] = Stability assay in rat plasma; format: in vitro ADME; conditions: 37° C.
Experimental: To each of several tubes sub-packaged with rat plasma, PBS solution was added in a volume equal to a quarter of plasma volume, and the resultant mixture was mixed well. […] At different time points (0, 10, 30, 60, 120, 240, 360, 720, 1440 min), 50 μL plasma sample was taken and added to 150 μL precooled methanol (containing the internal standard compound E8, with a structure of
[drawing 117] and a name of 1-(2-Biphenyl-4-yl)ethyl-carbonyl pyrrolidine, 1 nmol/sample), wherein three parallel samples were prepared for each time point. The samples were then vertically mixed well, and centrifuged at 4° C., 12000 g for 10 min. The supernatant was transferred to a sample vial. LC-MS/MS was used to measure the peak area at different time points, Analyst® version 1.4.1. software was used to analyze chromatographic peak, and the content of the target compound was calculated by virtue of the standard curve.

zebrafish embryos = format: in vivo; conditions: for Death number (72 h): n = 30; for Body length (72 h) / Hatching number (72 h) / Heartbeat (72 h) / Unhatching number (72 h) / hatching rate: zebrafish, in vivo, 72 h
Experimental: Fertilized eggs (donated by Zebrafish Research Group, School of Life Sciences, Xiamen University) were incubated in freshly prepared zebrafish embryo culture medium, which was replaced by fresh culture medium every day, and cultured in 28.5° C. incubator. Pure water was placed in the incubator to ensure a certain humidity in the culture environment. The formulation for zebrafish embryo culture medium was following: 5 mM NaCl, 0.17 mM KCl, 0.33 mM CaCl2, 0.33 mM MgSO4, 10-5% methylene blue. The culture medium was prepared with pure water. For example, NaCl: 292.2 mg, KCl: 12.68 mg, CaCl2: 36.63 mg, MgSO4: 39.72 mg, and methylene blue: 0.1 μL were needed for the preparation of 1 L culture medium.
7 Groups were set for each test compound, including 5 experimental groups relating to the test compound at different concentrations (solutions containing the test compound at different concentrations were prepared by using zebrafish embryo culture medium, wherein the concentrations were 10 mg/L, 3 mg/L, 1 mg/L, 0.3 mg/L, 0.1 mg/L), 1 solvent control group (DMSO) and 1 blank control group. The positive control drug was OTC analgesic ibuprofen at concentrations as described above. A 96-well cell culture plate was used to perform the experiment, three wells in parallel were used for each experimental group, and 10 fish eggs were contained in each well.
Culture medium containing a test compound was prepared, and the culture medium was added to a 96-well plate in advance, and each fertilized egg (by reference to the experimental method in OECD No. 212 document, fertilized eggs, which developed normally within 2 h after fertilization, were selected and subjected to exposure. Transparent fish eggs visible to naked eye were normally fertilized, while white fish eggs were dead and discarded. After the selection, the normally fertilized eggs had begun to divide as observed under microscope) was then independently placed in a different well, and cultured in the culture medium containing a test compound at a different concentration. Embryo development status at different stages was observed and photographed with invert microscope, including: […]
II. Hatching number and death number were counted at 72 h after fertilization, and hatching rate and mortality were calculated; […]
V. Heartbeat of young fishes (times/min) was recorded at 72 h and 96 h after fertilization (Recording method: heartbeat of young fishes could be clearly observed under microscope, and the number of heartbeats was recorded for 30 s).

Chain of hERG potassium channel (Q12809 whole entry): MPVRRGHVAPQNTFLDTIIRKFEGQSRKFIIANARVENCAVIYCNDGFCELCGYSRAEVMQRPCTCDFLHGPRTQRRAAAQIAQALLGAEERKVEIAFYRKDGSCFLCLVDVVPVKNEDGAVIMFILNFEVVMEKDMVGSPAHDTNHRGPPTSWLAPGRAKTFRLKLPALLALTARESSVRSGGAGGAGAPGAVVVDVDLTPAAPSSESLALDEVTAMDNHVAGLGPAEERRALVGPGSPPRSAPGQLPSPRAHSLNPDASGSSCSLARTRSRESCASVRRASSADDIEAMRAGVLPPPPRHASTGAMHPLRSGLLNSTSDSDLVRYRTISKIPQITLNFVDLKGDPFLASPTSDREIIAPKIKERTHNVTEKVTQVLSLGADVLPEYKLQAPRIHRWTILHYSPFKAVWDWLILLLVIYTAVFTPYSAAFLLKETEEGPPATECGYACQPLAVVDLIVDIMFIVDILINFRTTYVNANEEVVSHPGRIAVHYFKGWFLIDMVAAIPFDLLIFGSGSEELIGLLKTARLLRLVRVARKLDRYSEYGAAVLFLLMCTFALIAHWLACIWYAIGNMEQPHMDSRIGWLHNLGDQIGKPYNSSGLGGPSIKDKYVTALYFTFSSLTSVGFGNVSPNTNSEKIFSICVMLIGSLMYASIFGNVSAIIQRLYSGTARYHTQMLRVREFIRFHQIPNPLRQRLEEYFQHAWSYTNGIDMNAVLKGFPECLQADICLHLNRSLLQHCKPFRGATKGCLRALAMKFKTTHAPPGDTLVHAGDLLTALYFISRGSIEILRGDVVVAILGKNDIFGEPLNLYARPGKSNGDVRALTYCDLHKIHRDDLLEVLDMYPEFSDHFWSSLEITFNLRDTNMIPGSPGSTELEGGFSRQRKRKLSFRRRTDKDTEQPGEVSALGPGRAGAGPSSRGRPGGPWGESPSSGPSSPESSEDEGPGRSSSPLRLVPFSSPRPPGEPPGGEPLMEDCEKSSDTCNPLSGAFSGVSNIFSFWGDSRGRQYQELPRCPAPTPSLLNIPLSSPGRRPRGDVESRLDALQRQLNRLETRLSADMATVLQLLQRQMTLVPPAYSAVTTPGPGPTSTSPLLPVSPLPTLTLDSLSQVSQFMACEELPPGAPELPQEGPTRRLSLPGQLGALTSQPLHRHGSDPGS

Compound | IC50 (hERG potassium channel) [µM] | half-life at 2 μM [1] [h] | Death number (72 h) (zebrafish embryos; 0.1 mg/L) | Death number (72 h) (zebrafish embryos; 0.3 mg/L) | Death number (72 h) (zebrafish embryos; 1 mg/L) | Death number (72 h) (zebrafish embryos; 3 mg/L) | Death number (72 h) (zebrafish embryos; 10 mg/L) | Body length (72 h) (zebrafish embryos; 0.1 mg/L) [mm] | Hatching number (72 h) (zebrafish embryos; 0.1 mg/L) | Heartbeat (72 h) (zebrafish embryos; 0.1 mg/L) [per min] | Unhatching number (72 h) (zebrafish embryos; 0.1 mg/L) | Body length (72 h) (zebrafish embryos; 0.3 mg/L) [mm] | Hatching number (72 h) (zebrafish embryos; 0.3 mg/L) | Heartbeat (72 h) (zebrafish embryos; 0.3 mg/L) [per min] | Unhatching number (72 h) (zebrafish embryos; 0.3 mg/L) | Body length (72 h) (zebrafish embryos; 1 mg/L) [mm] | Hatching number (72 h) (zebrafish embryos; 1 mg/L) | Heartbeat (72 h) (zebrafish embryos; 1 mg/L) [per min] | Unhatching number (72 h) (zebrafish embryos; 1 mg/L) | hatching rate (zebrafish embryos; 1 mg/L) [%] | also measured
O=C(CCCCCc1cccc(Cl)c1)N1CCOC1=O [Compound 9, 3-Chlorophenylhexanoyl Oxazolidinone] | > 40 | 2.72 | 2 | 2 | 3 | 30 | 30 | 3.90 ± 0.05 | 28 | 129 ± 2.73 | 0 | 3.86 ± 0.03 | 28 | 130 ± 3.22 | 0 | 3.88 ± 0.04 | 27 | 130 ± 2.76 | 0 | 90 | Hatching number (72 h) (zebrafish embryos; 3 mg/L): 0; Unhatching number (72 h) (zebrafish embryos; 3 mg/L): 0; Hatching number (72 h) (zebrafish embryos; 10 mg/L): 0; Unhatching number (72 h) (zebrafish embryos; 10 mg/L): 0
O=C(CCCCCc1ccccc1)N1CCOC1=O [Compound 2, Phenylhexanoyl Oxazolidinone] | > 40 | 3.13 | 3 | 2 | 1 | 30 | 30 | 3.86 ± 0.05 | 27 | 130 ± 3.00 | 0 | 3.87 ± 0.05 | 28 | 130 ± 3.58 | 0 | 3.85 ± 0.06 | 29 | 128 ± 3.29 | 0 | 96.67 | Hatching number (72 h) (zebrafish embryos; 3 mg/L): 0; Unhatching number (72 h) (zebrafish embryos; 3 mg/L): 0; Hatching number (72 h) (zebrafish embryos; 10 mg/L): 0; Unhatching number (72 h) (zebrafish embryos; 10 mg/L): 0
